Earlier results on ten molecules are cited in patent publication US20150108064A1, “Production Of Channel Type Cyclodextrin Crystals” (Amphidex A/S, priority 2012, published 2015).

For data set [1] the following is noted: maximum safe concentration in the air, worker exposed daily.

Consider `CCCO` [1-propanol], for which the TLV in data set [1] is listed as 200 ppm.
Consider `CC(C)=O` [Acetone], for which, in data set [1], the TLV was 500 ppm.
For `ClC(Cl)Cl` [Chloroform], the TLV in data set [1] is on record as 10 ppm.
Consider `C1CCCCC1` [Cyclohexane], for which the “Solubility in H2O” value is 0.005 g/100 g. For the same molecule, the TLV in data set [1] is reported as 300 ppm.
As for `CCO` [Ethanol], the TLV in data set [1] is recorded as 1000 ppm.
Consider `CCOC(C)=O` [Ethyl acetate], for which the “Solubility in H2O” value is listed as 8.700 g/100 g. The TLV in data set [1] is reported as 400 ppm.
With `CCCCCCC` [Heptane], the TLV in data set [1] is recorded as 400 ppm.
For the molecule `CCCCCC` [Hexane], the “Solubility in H2O” value is 0.001 g/100 g. In addition, the TLV in data set [1] is 50 ppm.
With `CCCCC` [Pentane], the “Solubility in H2O” value was 0.004 g/100 g.
Regarding `C1CCOC1` [THF, Tetrahydrofuran], the TLV in data set [1] is given as 200 ppm.
